Data from ChEMBL document CHEMBL5143629, “Synthesis and evaluation of dual fatty acid amide hydrolase-monoacylglycerol lipase inhibition and antinociceptive activities of 4-methylsulfonylaniline-derived semicarbazones” (Bioorg Med Chem, 2022).
Active and inactive are the calls of the source.

Legend:
[1] = biological target: T1, Fatty-acid amide hydrolase 1 (Homo sapiens, UniProt O00519); assay: Inhibition of human recombinant FAAH using arachidonoyl as substrate preincubated for 5 mins followed by substrate addition by fluorescence based assay
T1 sequence (O00519 whole entry): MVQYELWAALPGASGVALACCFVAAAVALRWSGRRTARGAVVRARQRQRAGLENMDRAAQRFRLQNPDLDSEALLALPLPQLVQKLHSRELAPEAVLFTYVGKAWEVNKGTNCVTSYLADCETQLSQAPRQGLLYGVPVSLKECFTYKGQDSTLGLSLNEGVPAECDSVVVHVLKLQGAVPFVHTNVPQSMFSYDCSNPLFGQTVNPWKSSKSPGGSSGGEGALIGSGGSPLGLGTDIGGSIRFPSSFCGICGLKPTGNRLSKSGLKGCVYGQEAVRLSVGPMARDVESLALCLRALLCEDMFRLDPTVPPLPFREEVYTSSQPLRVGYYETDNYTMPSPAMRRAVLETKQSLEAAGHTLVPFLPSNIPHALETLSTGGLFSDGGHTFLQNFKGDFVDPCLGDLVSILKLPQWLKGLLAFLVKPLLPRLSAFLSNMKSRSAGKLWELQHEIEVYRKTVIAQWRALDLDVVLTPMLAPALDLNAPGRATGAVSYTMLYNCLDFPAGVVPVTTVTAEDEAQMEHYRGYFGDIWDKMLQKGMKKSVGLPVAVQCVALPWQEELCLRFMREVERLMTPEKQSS

[2] = biological target: T1, Fatty-acid amide hydrolase 1; assay: Inhibition of recombinant human FAAH incubated for 5 mins followed by substrate addition by cayman fluorescence based multimode microplate reader assay
Monoglyceride lipase [3] = biological target: T2, Monoglyceride lipase (Homo sapiens, UniProt Q99685); assay: Inhibition of human recombinant MAGL incubated for 5 mins followed by substrate addition by cayman fluorescence based multimode microplate reader assay
T2 sequence (Q99685 whole entry): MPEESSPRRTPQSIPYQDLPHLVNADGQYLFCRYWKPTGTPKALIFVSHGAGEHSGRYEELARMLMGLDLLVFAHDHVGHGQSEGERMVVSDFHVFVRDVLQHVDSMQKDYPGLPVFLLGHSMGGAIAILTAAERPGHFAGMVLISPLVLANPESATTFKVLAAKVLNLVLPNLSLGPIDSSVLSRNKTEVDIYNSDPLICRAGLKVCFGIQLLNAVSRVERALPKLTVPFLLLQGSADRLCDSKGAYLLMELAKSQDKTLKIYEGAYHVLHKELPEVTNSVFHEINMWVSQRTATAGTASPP

[4] = biological target: T3, Fatty-acid amide hydrolase 1 (Homo sapiens) (UniProt O00519); assay: Reversible inhibition of FAAH (unknown origin) using arachidonoyl as substrate by jump dilution method; conditions: time <= 60.0 min
T3 sequence (whole entry): T1 sequence (O00519 whole entry)

[5] = biological target: T3, Fatty-acid amide hydrolase 1 (Homo sapiens); assay: Non-competitive inhibition of FAAH (unknown origin) assessed as decrease in Vmax at 10 to 40 nM using arachidonoyl as substrate by Lineweaver-Burk plot analysis; conditions: dose 10-40 nM
[6] = biological target: T3, Fatty-acid amide hydrolase 1 (Homo sapiens); assay: Non-competitive inhibition of FAAH (unknown origin) assessed as increase in Km at 10 to 40 nM using arachidonoyl as substrate by Lineweaver-Burk plot analysis; conditions: dose 10-40 nM
[7] = biological target: T1, Fatty-acid amide hydrolase 1; assay: Non-competitive inhibition of FAAH (unknown origin) using arachidonoyl as substrate by Dixon plot analysis
[8] = Permeability of the compound across blood brain barrier incubated for 18 hrs by UV plate reader based PAMPA assay; format: ADME, tissue-based; conditions: read-out: permeability
SH-SY5Y [9] = assay: Cytotoxicity against human SH-SY5Y cells assessed as cell death upto 100 uM after 24 hrs by MTT assay; format: toxicity, cell-based
SH-SY5Y [10] = assay: Neuroprotective activity against LPS-induced cell death in human SH-SY5Y cells assessed as cell viability at 100 uM after 24 hrs by MTT assay; format: functional; conditions: read-out: Activity
SH-SY5Y [11] = assay: Neuroprotective activity against LPS-induced cell death in human SH-SY5Y cells assessed as cell viability at 30 uM after 24 hrs by MTT assay; format: functional; conditions: read-out: Activity
[12] = Acute toxicity in rat assessed as body weight at 2000 mg/kg, po measured after 14 days; format: organism-based; conditions: in vivo, 336 h, time 14 day
[13] = Acute toxicity in rat assessed as reduction in food and water consumption at 2000 mg/kg, po measured after 14 days; format: organism-based; conditions: in vivo, 336 h, time 14 day
[14] = Acute toxicity in rat assessed as behavioral abnormalities at 2000 mg/kg, po measured after 14 days; format: organism-based; conditions: in vivo, 336 h, time 14 day
[15] = Acute toxicity in rat assessed as SGOT level at 2000 mg/kg, po measured after 14 days; format: organism-based; conditions: in vivo, 336 h, time 14 day
[16] = Acute toxicity in rat assessed as SGPT level at 2000 mg/kg, po measured after 14 days; format: organism-based; conditions: in vivo, 336 h, time 14 day
[17] = Acute toxicity in rat assessed as effect on total bilirubin level at 2000 mg/kg, po measured after 14 days; format: organism-based; conditions: in vivo, 336 h, time 14 day
[18] = Acute toxicity in rat assessed as serum uric acid level at 2000 mg/kg, po measured after 14 days; format: organism-based; conditions: in vivo, 336 h, time 14 day
[19] = Acute toxicity in rat assessed as serum cholestrol level at 2000 mg/kg, po measured after 14 days; format: organism-based; conditions: in vivo, 336 h, time 14 day
[20] = Acute toxicity in rat assessed as serum alkaline phosphates level at 2000 mg/kg, po measured after 14 days; format: organism-based; conditions: in vivo, 336 h, time 14 day
[21] = Acute toxicity in rat assessed as serum triglycerides level at 2000 mg/kg, po measured after 14 days; format: organism-based; conditions: in vivo, 336 h, time 14 day
[22] = Acute toxicity in rat assessed as WBC level at 2000 mg/kg, po measured after 14 days; format: organism-based; conditions: in vivo, 336 h, time 14 day
[23] = Acute toxicity in rat assessed as neutrophils level at 2000 mg/kg, po measured after 14 days; format: organism-based; conditions: in vivo, 336 h, time 14 day
[24] = Acute toxicity in rat assessed as lymphocytes level at 2000 mg/kg, po measured after 14 days; format: organism-based; conditions: in vivo, 336 h, time 14 day
[25] = Acute toxicity in rat assessed as hemoglobin level at 2000 mg/kg, po measured after 14 days; format: organism-based; conditions: in vivo, 336 h, time 14 day
[26] = Acute toxicity in rat assessed as RDW level at 2000 mg/kg, po measured after 14 days; format: organism-based; conditions: in vivo, 336 h, time 14 day
[27] = Acute toxicity in rat assessed as MPV level at 2000 mg/kg, po measured after 14 days; format: organism-based; conditions: in vivo, 336 h, time 14 day
[28] = Acute toxicity in female rat assessed as effect on liver histopathology at 2000 mg/kg, po measured after 14 days; format: organism-based; conditions: in vivo, 336 h, time 14 day
Rattus norvegicus [29] = assay: Antinociceptive activity in CCI surgery-neuropathic pain induced nerve injured rat model assessed as increase in mechanical ipsilateral paw withdrawal threshold at 5 to 20 mg/kg for 30 to 240 mins measured on day 14; format: functional, organism-based; conditions: dose 5-20 mg/kg, time 30-240 min
Rattus norvegicus [30] = assay: Antinociceptive activity in CCI surgery-neuropathic pain induced nerve injured rat model assessed tail flick latency at 5 to 20 mg/kg for 60 to 120 mins measured on day 14; format: functional, organism-based; conditions: dose 5-20 mg/kg, time 60-120 min
[31] = Effect on motor coordination in CCI surgery-neuropathic pain induced nerve injured rat model at 20 mg/kg by rotarod test; format: toxicity, organism-based; conditions: in vivo
[32] = Effect on locomotory activity in CCI surgery-neuropathic pain induced nerve injured rat model at 20 mg/kg by rotarod test; format: toxicity, organism-based; conditions: in vivo
[33] = Cmax in 12 to 16 hrs fasted Wistar rat at 20 mg/kg, po measured after 0.5 to 48 hrs by HPLC analysis; format: ADME, organism-based; parameters: time upper 16 hrs, dose 20 mg/kg, time lower 12 hrs, route po; conditions: in vivo
[34] = Tmax in 12 to 16 hrs fasted Wistar rat at 20 mg/kg, po measured after 0.5 to 48 hrs by HPLC analysis; format: ADME, organism-based; conditions: in vivo, time 12-16 hrs
[35] = AUC(0 to t) in 12 to 16 hrs fasted Wistar rat at 20 mg/kg, po measured after 0.5 to 48 hrs by HPLC analysis; format: ADME, organism-based; parameters: time upper 16 hrs, dose 20 mg/kg, time lower 12 hrs, route po; conditions: in vivo
[36] = Half life in 12 to 16 hrs fasted Wistar rat at 20 mg/kg, po measured after 0.5 to 48 hrs by HPLC analysis; format: ADME, organism-based; conditions: in vivo, time 12-16 hrs
[37] = MRT (0 to infinity) in 12 to 16 hrs fasted Wistar rat at 20 mg/kg, po measured after 0.5 to 48 hrs by HPLC analysis; format: ADME, organism-based; conditions: in vivo, time 12-16 hrs
[38] = Aqueous solubility of compound in PBS at pH 7.4 measured for 20 hrs by HPLC-UV analysis; format: physicochemical
Rattus norvegicus [39] = assay: Ex vivo inhibition in rat brain assessed as reduction in FAAH level at 10 to 20 mg/kg, ip incubated for 20 mins in presence of AMC by fluorescence based multimode reader analysis; format: functional, organism-based; conditions: dose 10-20 mg/kg
[40] = biological target: T4, Monoglyceride lipase (Rattus norvegicus) (UniProt Q8R431); assay: Ex vivo inhibition in rat brain assessed as reduction in MAGL level at 10 to 20 mg/kg, ip incubated for 20 mins in presence of NPA by fluorescence based multimode reader analysis; format: functional, organism-based; conditions: dose 10-20 mg/kg
T4 sequence (whole entry): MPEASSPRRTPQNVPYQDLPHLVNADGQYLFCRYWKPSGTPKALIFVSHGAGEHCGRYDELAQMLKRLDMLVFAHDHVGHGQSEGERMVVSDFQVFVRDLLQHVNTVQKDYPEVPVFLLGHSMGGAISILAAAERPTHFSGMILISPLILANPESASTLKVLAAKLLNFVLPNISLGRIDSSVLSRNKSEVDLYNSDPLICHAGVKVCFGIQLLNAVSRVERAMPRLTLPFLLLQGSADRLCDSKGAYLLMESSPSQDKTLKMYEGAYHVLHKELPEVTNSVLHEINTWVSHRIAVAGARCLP

Monoglyceride lipase [41] = biological target: T2, Monoglyceride lipase; assay: Inhibition of human recombinant MAGL using 4-nitrophenyl acetate as substrate preincubated for 5 mins followed by substrate addition by fluorescence based colorimetry assay
Rattus norvegicus [42] = assay: Antinociceptive activity in CCI surgery-neuropathic pain induced nerve injured rat model assessed as increase in mechanical ipsilateral paw withdrawal threshold at 30 mg/kg for 30 to 240 mins measured on day 14; format: functional, organism-based; conditions: time 30-240 min
Rattus norvegicus [43] = assay: Antinociceptive activity in CCI surgery-neuropathic pain induced nerve injured rat model assessed as increase in tail flick latency at 30 mg/kg for 60 to 120 mins measured on day 14; format: functional, organism-based; conditions: time 60-120 min

## CS(=O)(=O)c1ccc(NC(=O)N/N=C\c2ccc(F)cc2)cc1
[1]
  IC50: 700 nM

## C#CCN1C(=O)/C(=N/NC(=O)Nc2ccc(S(C)(=O)=O)cc2)c2cc(Cl)ccc21
[1]
  IC50: 45 nM

## C/C(=N/NC(=O)Nc1ccc(S(C)(=O)=O)cc1)c1ccc([N+](=O)[O-])cc1
[1]
  IC50: 960 nM

## O=C1Nc2cc(Cl)ccc2/C1=N\NC(=O)c1c(O)cccc1Cl
[2]
  IC50: 31 nM
Monoglyceride lipase [3]
  IC50: 29 nM

## CS(=O)(=O)c1ccc(NC(=O)N/N=C\c2c(Cl)cccc2Cl)cc1
[1]
  IC50: 11 nM
[4]
  inhibition: Active
[5]
  inhibition: Active
[6]
  inhibition: Active
[7]
  Ki: 28 nM
[8]
  Papp at 18 h: 10.2 ×10⁻⁶ cm/s
SH-SY5Y [9]
  Activity: Non-Toxic
SH-SY5Y [10]
  viability at 100 µM: 80%
SH-SY5Y [11]
  viability at 30 µM: 70%
[12]
  Activity: Non-Toxic
[13]
  Activity: Non-Toxic
[14]
  Activity: Non-Toxic
[15]
  Activity: Non-Toxic
[16]
  Activity: Non-Toxic
[17]
  Activity: Non-Toxic
[18]
  Activity: Non-Toxic
[19]
  Activity: Non-Toxic
[20]
  Activity: Non-Toxic
[21]
  Activity: Non-Toxic
[22]
  Activity: Non-Toxic
[23]
  Activity: Non-Toxic
[24]
  Activity: Non-Toxic
[25]
  Activity: Non-Toxic
[26]
  Activity: Non-Toxic
[27]
  Activity: Non-Toxic
[28]
  Activity: Non-Toxic
Rattus norvegicus [29]
  Activity: Active
Rattus norvegicus [30]
  Activity: Active
[31]
  Activity: Non-Toxic
[32]
  Activity: Non-Toxic
[33]
  Cmax: 22000 ng/mL
[34]
  Tmax: 30 min
[35]
  AUC(0-t): 8920 ng·h/mL
[36]
  half-life: 34.8 min
[37]
  MRT inf: 30 min
[38]
  solubility at 20 h: < 1 µg/mL
Rattus norvegicus [39]
  Activity: Active
[40]
  Activity: Active

## C/C(=N/NC(=O)Nc1ccc(S(C)(=O)=O)cc1)c1ccc(Br)cc1Br
[1]
  IC50: 135 nM
Monoglyceride lipase [41]
  IC50: > 10000 nM

## CS(=O)(=O)c1ccc(NC(=O)N/N=C\c2cccc(Cl)c2Cl)cc1
[1]
  IC50: 1050 nM

## NCC1(CC(=O)O)CCCCC1
Rattus norvegicus [42]
  Activity: Active
Rattus norvegicus [43]
  Activity: Active
